Assay results from US9546355B2, “Conditional replicating cytomegalovirus as a vaccine for CMV” (Merck Sharp & Dohme Corp., priority 2011, dated 2017).

Columns and labels:
FKBP = settings: tighter binding; Clackson et al., 1998; cited from earlier work
ARPE-19 cells = assay: Shield-1 concentration dependent progeny virus production (TCID50 assay); format: cell-based; settings: rdCMV in ARPE-19 cells and other human primary cells
Procedure: ARPE-19 cells were infected with the rdCMV viruses at a multiplicity of 0.01 PFU/cell for 1 h, washed twice with fresh medium, and incubated in the growth medium containing 0, 0.05, 0.1 0.5 or 2 μM of Shield-1. Seven days post infection, the cell free virus was collected, and virus titers were determined by TCID50 assay on ARPE-19 cells in the presence of 2 μM of Shield 1.
Varying concentrations of Shld-1 were used in additional experiments to further assess viral replication in the presence or absence of Shld-1. ARPE-19 cells were infected by the gH expressing CMV that also contained a FKBP derivative fused to an essential protein at MOI of […]. After infection for 1 hour, the cells were washed twice with fresh medium to remove the Shld-1 from the inoculums. The inoculums were then added to ARPE-19 cells cultured in medium containing 0.05, 0.1, 0.5 or 2 μM of Shield-1. Seven days post infection, the cell-free progeny virus in the supernatant was collected and titrated on ARPE-19 cells supplemented with […] of Shield-1. Virus titers were determined by a 50% Tissue Culture Infective Dose (TCID50) assay. Briefly, this dilution assay quantifies the amount of virus required to kill 50% of infected hosts. […] After incubation, the percentage of cell death (i.e. infected cells) was manually observed and recorded for each virus dilution. […]

CC[C@H](C(=O)N1CCCC[C@H]1C(=O)O[C@H](CCc1ccc(OC)c(OC)c1)c1cccc(OCCN2CCOCC2)c1)c1cc(OC)c(OC)c(OC)c1 [Shield-1]
Binding to the F36V derivative compared to wild-type FKBP (FKBP): about 1,000 fold | Molar concentration of Shield-1 in the culture medium required to sustain viral replication (ARPE-19 cells): greater than 0.1 μM
